Data on three compounds can be found in EP1377579B1 (Aventis Pharmaceuticals Inc., priority 2000, dated 2002).

Broadly, the IC50 is the midpoint of a concentration-inhibition curve.

In data set [1] the test system is NCI-H460. Kind of data set: In vitro proliferation assay (MTT), NCI-H460. The following applies: Homo sapiens, NCI-H460; MTT assay; value (SD, n) where given; read-out: H-460 Lung (IC50 µM). The class given is cell-based. The method, boiled down:
(§1)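 Tetrazolium (MTT) proliferation test following a 3-day treatment with compound. Read-out is optical density at 570 nm after DMSO solubilization.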
For orientation: Tetrazolium assays rely on reduction of a dye to a coloured formazan, in cell work by metabolically active cells.

For data set [2], the system named is HL-60. The data set is described as follows: In vitro proliferation assay (MTT), HL-60. It counts as cell-based. The following applies: Homo sapiens, HL-60; MTT assay; value (SD, n) where given; read-out: HL-60 Leuk. (IC50 µM). The gist of the method: as §1
In data set [3] the test system is Jurkat. Kind of data set: In vitro proliferation assay (MTT), Jurkat. It counts as cell-based. The following applies: Homo sapiens, MTT assay, value (SD, n) where given, read-out: Jurkat Leuk. (IC50 µM). The method, boiled down: as §1
Data set [4] relates to PC-3 Human Prostate Tumors. The data set is described as follows: PC-3 human prostate tumor xenograft in nude mice. The class given is in vivo. Details: unit not given here. The following applies: Table 4. The gist of the method:
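Subcutaneous HL-60 (5 x10^5 cells) or PC-3 (5 x 10^6 cells) xenografts in nude mice; ip dosing qd 5x/wk from 50–100 mm^3 tumors, at MTD and 1/3 MTD, ~3 wk (HL-60) or ~5 wk (PC-3). Caliper tumor volume ½(a x b2) twice weekly; body weight weekly.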
On the technique in general: A xenograft is tissue or cells of one species grown in another, often human tumour cells in immunodeficient mice.

A short description of data set [5]: Red blood cell binding, human whole blood. The class given is in vitro ADME. Particulars: 30 minutes at 37°C, 500 ng/ml. Here is the method:
Compounds, including one positive control, are assessed for red blood cell (RBC) uptake, using a modified procedure based on the protocol reported in Sun, J.X.S., et al. High-performance liquid chromatographic analysis, plasma protein binding and red blood cell partitioning of phenprobamate. Biopharmaceutics and Drug Disposition, 8 (1987) 341-351.
Briefly, RBC uptake is evaluated by comparison of the levels in spiked plasma (n=3) and plasma isolated from spiked whole blood (n=3). Compounds are incubated with human and mouse whole blood, respectively, for 30 minutes at 37°C using a nominal concentration of 500 ng/ml. Following centrifugation, the plasma is removed and submitted for analysis. Each compound is also spiked into blank plasma at a nominal concentration of 500 ng/ml, and submitted for analysis. Levels in the two plasma samples (Cp' and Cp in the equation below) and the blood hematocrit are used to determine the red blood cell to plasma ratio (Crbc/Cp). (Crbc)/(Cp) = (Cpʹ)/(Cp•H)-((1-H))/(H) [formula] In equation 1, Cp' is the level of drug in the spiked "blank" plasma, Cp is the level of drug in the plasma of spiked whole blood, and H is the hematocrit. The hematocrit values are determined as 0.4 for human whole blood and 0.41 for mouse whole blood. The samples are analyzed with ESI LC/MS, using positive ion detection with an internal standard.
The red blood cell to plasma ratio is determined for each compound using equation 1. Tables 6 and 7 summarize the respective mean Crbc/Cp values and standard deviations for mouse and human whole blood, respectively, in descending order based on the red blood cell to plasma ratio, where"*" denotes Positive Control, and "ND" denotes Not Determined. MDL 108552 is included as a positive control for red blood cell uptake. Table 6. Red Blood Cell to Plasma Ratio for compounds in mouse whole blood

Data set [6] has as its system Colo-205. The data set is described as follows: In vitro proliferation assay (MTT), Colo-205. The class given is cell-based. The following applies: Homo sapiens, COLO 205; MTT assay; value (SD, n) where given; read-out: Colo-205 Colon (IC50 µM). The method, boiled down: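 Colo-205 cells were seeded at 1000–2500 cells/well and allowed to attach overnight, then exposed to compound for 3 days. Viable cells were measured by MTT reduction (2–4 h, 37 °C), with DMSO-solubilised dye read at 570 nm. IC50 was derived from concentration–response data.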

A value given as a limit tells only on which side of the number the result lay.

For the compound `Cl.Cl.N[C@H]1CC[C@H](Nc2nc(NC3CCN(S(=O)(=O)c4cccc(C(F)(F)F)c4)CC3)c3ncn(C4CCCC4)c3n2)CC1` [compound 112, trans-N^2-(4-Amino-cyclohexyl)-9-cyclopentyl-N^6-[1-(3-trifluoromethyl-benzenesulfonyl)-piperidin-4-yl]-9H-purine-2,6-diamine dihydrochloride], the IC50 in data set [1] was 0.07 µM; in data set [2] it was 0.18 µM; in data set [3], 0.11 µM; in data set [6], below 0.02 µM. The “PC-3 Mean Vol. ± SD” value in data set [4] (dose 0.3 mg/kg ip) was found to be 1302 ± 869; in data set [4] (dose 1 mg/kg ip), 1155 ± 872. Besides, the “Mean Red Blood Cell to Plasma Ratio” value in data set [5] came to 3.7.

Consider `Cl.Cl.N[C@H]1CC[C@H](Nc2nc(NC3CCN(C(=O)Nc4ccc(C(F)(F)F)cc4)CC3)c3ncn(C4CCCC4)c3n2)CC1` [compound 149, trans-4-[2-(4-Amino-cyclohexylamino)-9-cyclopentyl-9H-purin-6-ylamino]-piperidine-1-carboxylic acid (4-trifluoromethyl-phenyl)-amide dihydrochloride], for which the IC50 worked out at 0.32 µM in data set [1], 0.03 µM in data set [2], 0.22 µM in data set [3] and 0.09 µM in data set [6]. For the same compound, the “PC-3 Mean Vol. ± SD” value was 1084 ± 929 in data set [4] (dose 1 mg/kg ip) and 2089 ± 1382 in data set [4] (dose 3 mg/kg ip). The “Mean Red Blood Cell to Plasma Ratio” value in data set [5] turned out to be 2.8.

In the case of `CCOC(=O)c1ccc(NC(=O)N2CCC(Nc3nc(N[C@H]4CC[C@H](N)CC4)nc4c3ncn4C3CCCC3)CC2)cc1.Cl.Cl` [compound 154, trans-4-[(1-{4-[2-(4-Amino-cyclohexylamino)-9-cyclopentyl-9H-purin-6-ylamino]-piperidin-1-yl}-methanoyl)-amino]-benzoic acid ethyl ester dihydrochloride], the IC50 in data set [1] stood at 0.24 µM; in data set [2] it was 0.06 µM; in data set [3] it was 0.25 µM; in data set [6], 0.01 µM. For the same compound, the figures for the “PC-3 Mean Vol. ± SD” value in data set [4] (dose 3 mg/kg ip) and in data set [4] (dose 10 mg/kg ip) were 1385 ± 873 and 1707 ± 721, respectively. Further, the “Mean Red Blood Cell to Plasma Ratio” value in data set [5] was 4.1.
